Assay results: patent publication US7273848B2, “Apolipoprotein A-I agonists and their use to treat dyslipidemic disorders” (priority 1997, dated 2007)
Non-standard residues stand in square brackets, D forms with d. Residues, ends and D or L forms follow the SMILES beside them. No end group written: not given here. 1Nal = N[C@@H](Cc1cccc2ccccc12)C(=O)O; Aib = CC(C)(N)C(=O)O

Experiments:
[1] = molecular target: T1, LCAT (purified from human plasma) (Homo sapiens, UniProt P04180); assay: LCAT activation assay; format: biochemical; conditions: LCAT activation as compared with native human ApoA-I (= 100%), equivalent masses
T1 construct: from tissue; host or cells: human plasma
T1 sequence (P04180 25-440): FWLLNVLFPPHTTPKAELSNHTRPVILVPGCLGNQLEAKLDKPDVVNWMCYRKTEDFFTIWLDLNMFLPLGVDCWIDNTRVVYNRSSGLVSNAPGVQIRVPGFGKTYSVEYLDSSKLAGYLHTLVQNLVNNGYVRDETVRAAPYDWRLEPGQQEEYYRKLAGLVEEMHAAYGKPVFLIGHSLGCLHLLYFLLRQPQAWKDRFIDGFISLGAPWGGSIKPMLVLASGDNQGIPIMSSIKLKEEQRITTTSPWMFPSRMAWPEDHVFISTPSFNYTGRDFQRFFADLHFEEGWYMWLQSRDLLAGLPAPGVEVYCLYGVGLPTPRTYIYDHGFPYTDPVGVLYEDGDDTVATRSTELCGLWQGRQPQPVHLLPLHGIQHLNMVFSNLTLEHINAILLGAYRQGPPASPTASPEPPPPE
How it was run: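 Activity was expressed as percentage conversion of radiolabelled cholesterol to cholesteryl ester, normalised to native ApoA-I as 100%. LCAT purified from human plasma was added to peptide-preincubated EPC or POPC/cholesterol (20:1) small unilamellar vesicles at pH 7.4. Specific activity is the peptide concentration reaching the conversion plateau at a fixed timepoint.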

[2] = Circular dichroism helicity determination; format: physicochemical; conditions: percent helicity; for He (%) TFE: 5 μM peptide, 90% vol TFE; for He (%) TFE / He (%) SUVs: 37° C.; for He (%) free: unbound peptide 5 μM in 5 mM phosphate buffer, pH 7.4, 37° C.; for He (%) SUVs: peptide-SUV complexes (20:1 EPC:Chol., Ri=30 and Ri=50); for He (%) mics: peptide-micelle complexes, Ri=100, 37° C.
How it was run: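 Far-UV CD (190–260 nm) at 37° C on 5 μM peptide in 5 mM phosphate pH 7.4, free, with EPC:Chol 20:1 SUVs (Ri 30 or 50), lysophosphatidylcholine micelles (Ri 100) or 90% TFE. Spectra converted to molar ellipticity per residue; helicity from 222 nm ellipticity or CONTIN fitting to reference spectra, ±5%.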

| Compound | ACTIVITY (%) LCAT [1] [%] | He (%) TFE [2] [%] | He (%) free [2] [%] | He (%) SUVs [2] [%] | He (%) mics [2] [%] |
| --- | --- | --- | --- | --- | --- |
| CC(C)C[C@H](NC(=O)[C@H](CCCCN)NC(=O)[C@H](CCC(N)=O)NC(=O)[C@H](CCCCN)NC(=O)[C@H](CC(C)C)NC(=O)[C@H](Cc1cccc2ccccc12)NC(=O)[C@H](CCC(=O)O)NC(=O)[C@H](CC(C)C)NC(=O)[C@H](CC(C)C)NC(=O)[C@H](CCC(=O)O)NC(=O)[C@H](CC(N)=O)NC(=O)[C@H](CC(C)C)NC(=O)[C@H](CC(C)C)NC(=O)[C@H](CCC(=O)O)NC(=O)[C@H](CCCNC(=N)N)NC(=O)[C@H](Cc1ccccc1)NC(=O)[C@H](CC(C)C)NC(=O)[C@H](CC(=O)O)NC(=O)[C@H](CC(C)C)NC(=O)[C@@H](NC(=O)[C@@H]1CCCN1)C(C)C)C(=O)N[C@@H](CCCCN)C(=O)O [peptide 1, PVLDLFRELLNELLEZLKQKLK] (H-PVLDLFRELLNELLE[1Nal]LKQKLK-OH) | 120 | 69 | 77 | 81 | 85 |
| CC(C)C[C@H](NC(=O)[C@H](C)NC(=O)[C@H](CCC(=O)O)NC(=O)[C@H](CC(C)C)NC(=O)C(C)(C)NC(=O)[C@H](CCC(=O)O)NC(=O)[C@H](CC(N)=O)NC(=O)[C@H](CC(C)C)NC(=O)[C@H](CCCCN)NC(=O)[C@H](CCC(=O)O)NC(=O)[C@H](CCCNC(=N)N)NC(=O)[C@H](Cc1ccccc1)NC(=O)[C@H](CC(C)C)NC(=O)[C@H](CC(=O)O)NC(=O)[C@H](CC(C)C)NC(=O)[C@@H](NC(=O)[C@@H]1CCCN1)C(C)C)C(=O)N[C@@H](CCCCN)C(=O)N[C@@H](CCC(N)=O)C(=O)N[C@@H](CCCCN)C(=O)N[C@@H](CC(C)C)C(=O)N[C@@H](CCCCN)C(=O)O [compound 46, PVLDLFREKLNEXLEALKQKLK] (H-PVLDLFREKLNE[Aib]LEALKQKLK-OH) | 23 | 85 | 30 | 58 | 86 |
| PVLDLFRELLNELWEALKQKLK [compound 28] | 40 | 81 | 82 | 90 | 98 |
| PVLDLFNELLRELLEALQKKLK [compound 40] | 25 | 77 | 66 | 79 | 84 |
| PVLELFENLLERGLDALQKKLK [peptide 154] | 39 | 80 | 13 | 25 | 76 |
| PVLDEFREKLNEPLEALKQKLK [compound 113] | 0 | – | 6 | – | 22 |
| VLDLFRELLNELLEALKQKLK [compound 67] | 14 | 94 | 81 | 84 | 90 |
| CC(C)C[C@H](NC(=O)[C@H](C)NC(=O)[C@H](CCC(=O)O)NC(=O)[C@H](Cc1c[nH]c2ccccc12)NC(=O)C(C)(C)NC(=O)[C@H](CCC(=O)O)NC(=O)[C@H](CC(N)=O)NC(=O)[C@H](CC(C)C)NC(=O)[C@H](CCCCN)NC(=O)[C@H](CCC(=O)O)NC(=O)[C@H](CCCNC(=N)N)NC(=O)[C@H](Cc1ccccc1)NC(=O)[C@H](CCC(=O)O)NC(=O)[C@H](CC(=O)O)NC(=O)[C@H](CC(C)C)NC(=O)[C@@H](NC(=O)[C@@H]1CCCN1)C(C)C)C(=O)N[C@@H](CCCCN)C(=O)N[C@@H](CCC(N)=O)C(=O)N[C@@H](CCCCN)C(=O)N[C@@H](CC(C)C)C(=O)N[C@@H](CCCCN)C(=O)O [compound 42, PVLDEFREKLNEXWEALKQKLK] (H-PVLDEFREKLNE[Aib]WEALKQKLK-OH) | 25 | 76 | 15 | 27 | 74 |
| DWLKAFYDKVFEKFKEFF [peptide 245, reference compound] | 4 | – | 38 | 70 | 77 |
